Experimental data: PubChem BioAssay AID316 (DTP/NCI, 2004)
“And” between values parts separate entries of the source, which are not always exact repeats. Equal values may be shown once. Inconclusive results and toxic doses are left out.

System: P1534 leukemia ip, CD2F1 mice, survival T/C
Test: NCI In Vivo Anticancer Drug Screen. Data for tumor model P1534 Leukemia (intraperitoneal) in CD2F1 (CDF1) mice
Conditions: higher = longer survival
Description: The antitumor activity of compounds was measured in mice bearing transplantable tumors. Survival or tumor size were measured and the results are expressed as the measurement made in the treated group (T) divided by the measurement made in the vehicle treated control group (C). The tumor model used in this assay is P1534 Leukemia (intraperitoneal) in CD2F1 (CDF1) mice

[1] = endpoint: mean survival time, dose: 15.6 mg/kg/injection, schedule: Q01DX010 (ip), vehicle: saline
[2] = endpoint: mean survival time, dose: 31.3 mg/kg/injection, schedule: Q01DX010 (ip), vehicle: saline
[3] = endpoint: mean survival time, dose: 62.5 mg/kg/injection, schedule: Q01DX010 (ip), vehicle: saline
[4] = endpoint: mean survival time, dose: 125.0 mg/kg/injection, schedule: Q01DX010 (ip), vehicle: saline
[5] = endpoint: mean survival time, dose: 6.25 mg/kg/injection, schedule: Q01DX010 (ip), vehicle: saline
[6] = endpoint: mean survival time, dose: 12.5 mg/kg/injection, schedule: Q01DX010 (ip), vehicle: saline
[7] = endpoint: mean survival time, dose: 10.0 mg/kg/injection, schedule: Q01DX010 (ip), vehicle: saline
[8] = endpoint: mean survival time, dose: 20.0 mg/kg/injection, schedule: Q01DX010 (ip), vehicle: saline
[9] = endpoint: mean survival time, dose: 40.0 mg/kg/injection, schedule: Q01DX010 (ip), vehicle: saline
[10] = endpoint: mean survival time, dose: 80.0 mg/kg/injection, schedule: Q01DX010 (ip), vehicle: saline
[11] = endpoint: mean survival time, dose: 100.0 mg/kg/injection, schedule: Q01DX010 (ip), vehicle: water
[12] = endpoint: mean survival time, dose: 150.0 mg/kg/injection, schedule: Q01DX010 (ip), vehicle: water
[13] = endpoint: mean survival time, dose: 50.0 mg/kg/injection, schedule: Q01DX010 (ip), vehicle: saline
[14] = endpoint: mean survival time, dose: 100.0 mg/kg/injection, schedule: Q01DX010 (ip), vehicle: saline
[15] = endpoint: mean survival time, dose: 200.0 mg/kg/injection, schedule: Q01DX010 (ip), vehicle: saline
[16] = endpoint: mean survival time, dose: 400.0 mg/kg/injection, schedule: Q01DX010 (ip), vehicle: saline
[17] = endpoint: mean survival time, dose: 12.5 mg/kg/injection, schedule: Q01DX010 (sc), vehicle: steriod suspending solution
[18] = endpoint: mean survival time, dose: 25.0 mg/kg/injection, schedule: Q01DX010 (sc), vehicle: steriod suspending solution
[19] = endpoint: mean survival time, dose: 50.0 mg/kg/injection, schedule: Q01DX010 (sc), vehicle: steriod suspending solution
[20] = endpoint: mean survival time, dose: 100.0 mg/kg/injection, schedule: Q01DX010 (sc), vehicle: steriod suspending solution
[21] = endpoint: mean survival time, dose: 250.0 mg/kg/injection, schedule: Q01DX010 (ip), vehicle: saline
[22] = endpoint: mean survival time, dose: 500.0 mg/kg/injection, schedule: Q01DX010 (ip), vehicle: saline
[23] = endpoint: mean survival time, dose: 25.0 mg/kg/injection, schedule: Q01DX010 (ip), vehicle: saline
[24] = endpoint: mean survival time, dose: 7.5 mg/kg/injection, schedule: Q01DX010 (ip), vehicle: saline

CC(=O)Nc1c(Cl)cc2c(c1Cl)Cc1cc([N+](=O)[O-])ccc1-2
T/C [1]: 107 % of control
T/C [2]: 107 % of control
T/C [3]: 107 % of control and 100 % of control
T/C [4]: 107 % of control

COc1ccc2cc3[n+](cc2c1OC)CCc1cc2c(cc1-3)OCO2
T/C (endpoint: mean survival time, dose: 1.56 mg/kg/injection, schedule: Q01DX010 (ip), vehicle: saline): 106 % of control
T/C (endpoint: mean survival time, dose: 3.13 mg/kg/injection, schedule: Q01DX010 (ip), vehicle: saline): 106 % of control
T/C [5]: 110 % of control
T/C [6]: 123 % of control

COc1ccc(C(=O)C[C@H]2CCC[C@@H](CC(=O)c3ccc(OC)cc3)N2C)cc1
T/C [7]: 107 % of control
T/C [8]: 100 % of control
T/C [9]: 100 % of control
T/C [10]: 107 % of control

OCn1cccn1
T/C [11]: 124 % of control
T/C (endpoint: mean survival time, dose: 125.0 mg/kg/injection, schedule: Q01DX010 (ip), vehicle: water): 121 % of control
T/C [12]: 118 % of control
T/C (endpoint: mean survival time, dose: 200.0 mg/kg/injection, schedule: Q01DX010 (ip), vehicle: water): 86 % of control

COc1ccc2c(c1OC)CN1CCc3cc4c(cc3C1C2)OCO4 (stereo not given)
T/C [13]: 107 % of control
T/C [14]: 92 % of control
T/C [15]: 88 % of control
T/C [16]: 100 % of control

C[C@]12C=CC(=O)C=C1CC[C@@H]1[C@@H]2CC[C@]2(C)OC(=O)CC[C@@H]12
T/C [17]: 107 % of control
T/C [18]: 107 % of control
T/C [19]: 107 % of control
T/C [20]: 100 % of control

COc1ccc(Cc2nccc3cc(OC)c(OC)cc23)cc1OC
T/C [7]: 100 % of control
T/C [8]: 100 % of control
T/C [9]: 100 % of control
T/C [10]: 100 % of control

Cc1[nH]ncc1Br
T/C [11]: 95 % of control
T/C [12]: 98 % of control

OCC1OC(n2cnc3c(Cl)ncnc32)C(O)C1O (stereo not given)
T/C [3]: 94 % of control and 100 % of control
T/C [4]: 100 % of control
T/C [21]: 111 % of control
T/C [22]: 105 % of control and 88 % of control

CCN(CC)CCNc1ccc(C)c2sc3ccccc3c(=O)c12
T/C [8]: 103 % of control
T/C [9]: 103 % of control
T/C [10]: 107 % of control

O=C(NCCCCC(NC(=O)c1ccccc1)C(=O)NCCCCCCCCCCNC(=O)C(CCCCNC(=O)c1ccccc1)NC(=O)c1ccccc1)c1ccccc1 (stereo not given)
T/C [5]: 103 % of control
T/C [6]: 103 % of control
T/C [23]: 100 % of control
T/C [13]: 96 % of control

CN(C)CC(=O)NCCCCCCCCCCNC(=O)CN(C)C
T/C [14]: 100 % of control
T/C [15]: 100 % of control
T/C [16]: 107 % of control

Nc1nncs1
T/C [24]: 114 % of control

O=CC(NC(=O)N(CCCl)N=O)C(O)C(O)C(O)CO (stereo not given)
T/C (endpoint: median survival time, dose: 0.62 mg/kg/injection, schedule: Q01DX005 (ip), vehicle: other): 110 % of control
T/C (endpoint: median survival time, dose: 2.5 mg/kg/injection, schedule: Q01DX005 (ip), vehicle: other): 156 % of control
T/C (endpoint: median survival time, dose: 5.0 mg/kg/injection, schedule: Q01DX005 (ip), vehicle: other): 224 % of control
T/C (endpoint: median survival time, dose: 10.0 mg/kg/injection, schedule: Q01DX005 (ip), vehicle: other): 89 % of control

O=c1ccc2ccccc2o1
T/C [13]: 107 % of control
T/C [14]: 107 % of control
T/C [15]: 107 % of control

CCN(CC)C(=S)S
T/C [4]: 100 % of control
T/C [21]: 100 % of control
T/C [22]: 103 % of control
T/C (endpoint: mean survival time, dose: 1000.0 mg/kg/injection, schedule: Q01DX010 (ip), vehicle: saline): 107 % of control

OC(CBr)C(O)C(O)C(O)CBr (stereo not given)
T/C [6]: 103 % of control
T/C [23]: 103 % of control
T/C [13]: 103 % of control
T/C [14]: 103 % of control

CN1CC[C@]23c4c5ccc(O)c4O[C@H]2C(=O)CC[C@H]3[C@H]1C5
T/C (endpoint: mean survival time, dose: 4.0 mg/kg/injection, schedule: Q01DX010 (ip), vehicle: saline): 100 % of control
T/C (endpoint: mean survival time, dose: 8.0 mg/kg/injection, schedule: Q01DX010 (ip), vehicle: saline): 100 % of control
T/C (endpoint: mean survival time, dose: 16.0 mg/kg/injection, schedule: Q01DX010 (ip), vehicle: saline): 107 % of control and 100 % of control
T/C (endpoint: mean survival time, dose: 32.0 mg/kg/injection, schedule: Q01DX010 (ip), vehicle: saline): 103 % of control

C=C(C(=O)OC1CC2CCC(C1)N2C)c1ccccc1 (stereo not given)
T/C (endpoint: mean survival time, dose: 1.25 mg/kg/injection, schedule: Q01DX010 (ip), vehicle: saline): 92 % of control
T/C (endpoint: mean survival time, dose: 2.5 mg/kg/injection, schedule: Q01DX010 (ip), vehicle: saline): 92 % of control
T/C (endpoint: mean survival time, dose: 5.0 mg/kg/injection, schedule: Q01DX010 (ip), vehicle: saline): 100 % of control
T/C [7]: 107 % of control

C/C=C1/CN[C@H]2Cc3c([nH]c4ccccc34)[C@@H](O)C[C@@H]1C2C(=O)OC (stereo not given in full)
T/C [24]: 93 % of control
T/C (endpoint: mean survival time, dose: 15.0 mg/kg/injection, schedule: Q01DX010 (ip), vehicle: saline): 93 % of control
T/C (endpoint: mean survival time, dose: 30.0 mg/kg/injection, schedule: Q01DX010 (ip), vehicle: saline): 96 % of control
T/C (endpoint: mean survival time, dose: 60.0 mg/kg/injection, schedule: Q01DX010 (ip), vehicle: saline): 93 % of control

COc1cc2c(cc1Oc1c(Oc3c(O)c(OC)cc4c3C(CC(C)C)N(C)CC4)c(OC)cc3c1C(CC(C)C)N(C)CC3)C(CC(C)C)N(C)CC2 (stereo not given)
T/C [23]: 107 % of control
T/C [13]: 115 % of control
T/C [14]: 111 % of control

Cc1nc(N)nc(N)c1-c1ccc(Cl)c(Cl)c1
T/C (endpoint: median survival time, dose: 0.75 mg/kg/injection, schedule: Q01DX009 (ip), vehicle: Klucel (hydroxypropylcellulose) (HPC)): 102 % of control
T/C (endpoint: median survival time, dose: 1.5 mg/kg/injection, schedule: Q01DX009 (ip), vehicle: Klucel (hydroxypropylcellulose) (HPC)): 119 % of control
T/C (endpoint: median survival time, dose: 3.0 mg/kg/injection, schedule: Q01DX009 (ip), vehicle: Klucel (hydroxypropylcellulose) (HPC)): 107 % of control

CN(C)c1ccc(C(N)=O)cn1
T/C (endpoint: mean survival time, dose: 1.5 mg/kg/injection, schedule: Q01DX010 (ip), vehicle: saline): 115 % of control
T/C (endpoint: mean survival time, dose: 3.0 mg/kg/injection, schedule: Q01DX010 (ip), vehicle: saline): 123 % of control

Nc1c(Br)cc2c(c1Br)Cc1cc([N+](=O)[O-])ccc1-2
T/C [1]: 115 % of control
T/C [2]: 107 % of control and 110 % of control
T/C [3]: 107 % of control
T/C [4]: 110 % of control and 115 % of control
T/C [21]: 107 % of control

COc1cc2c3c(c4ccc(OC)c(OC)c4c2cc1OC)CN1CCC[C@@H]1C3
T/C (endpoint: mean survival time, dose: 2.5 mg/kg/injection, schedule: Q01DX010 (ip), vehicle: water): 105 % of control
T/C (endpoint: mean survival time, dose: 5.0 mg/kg/injection, schedule: Q01DX010 (ip), vehicle: water): 102 % of control
T/C (endpoint: mean survival time, dose: 7.5 mg/kg/injection, schedule: Q01DX010 (ip), vehicle: water): 124 % of control
T/C (endpoint: mean survival time, dose: 10.0 mg/kg/injection, schedule: Q01DX010 (ip), vehicle: water): 113 % of control

CC(=O)[C@@]1(O)CC[C@H]2[C@@H]3C[C@H](C)C4=CC(=O)C=C[C@]4(C)[C@@]3(F)[C@@H](O)C[C@@]21C
T/C [17]: 107 % of control
T/C [18]: 107 % of control
T/C [19]: 107 % of control
T/C [20]: 100 % of control

COc1cc(-c2ccc(Nc3ccccc3C(=O)O)c(OC)c2)ccc1Nc1ccccc1C(=O)O
T/C [6]: 107 % of control
T/C [23]: 114 % of control and 117 % of control
T/C [13]: 117 % of control

NC(N)=NCCCC(N)C(=O)NCCCCCCNC(=O)C(N)CCCN=C(N)N (stereo not given)
T/C [23]: 100 % of control
T/C [13]: 96 % of control
T/C [14]: 100 % of control
T/C [15]: 100 % of control

O=[n+]1c2c(n([O-])c3ccccc31)-c1cccc3cccc-2c13
T/C [23]: 92 % of control and 96 % of control
T/C [13]: 103 % of control and 92 % of control
T/C [14]: 92 % of control and 96 % of control
T/C [15]: 92 % of control

C[C@]12C=CC(=O)C=C1CC[C@@H]1[C@@H]2[C@@H](O)C[C@@]2(C)[C@H]1CC[C@]2(O)C(=O)CO
T/C [17]: 103 % of control
T/C [18]: 106 % of control and 110 % of control

CCC(CCC(C)C1CCC2C3CC=C4CC(O)CCC4(C)C3CCC12C)C(C)C (stereo not given) (tested in a mixture with another compound)
T/C (endpoint: mean survival time, dose: 12.0 mg/kg/injection, schedule: Q01DX010 (ip), vehicle: water): 102 % of control
T/C (endpoint: mean survival time, dose: 25.0 mg/kg/injection, schedule: Q01DX010 (ip), vehicle: water): 109 % of control
T/C (endpoint: mean survival time, dose: 25.0 mg/kg/injection, schedule: Q#A X020 (ip), vehicle: other): 87 % of control
T/C (endpoint: mean survival time, dose: 50.0 mg/kg/injection, schedule: Q01DX010 (ip), vehicle: water): 93 % of control
